The values that follow come from patent US20240238296A1, “METHODS OF REGULATING BCL11A EXPRESSION AND TREATMENT OF BCL11A-MEDIATED DISORDERS” (Fulcrum Therapeutics, Inc., priority 2021, published 2024).

Each structure is given as a SMILES string.

Experiment [1] deals with HbF. The experiment is described as follows: % HbF of total hemoglobin by HPLC from whole blood in Townes SCD mouse model. The format is in vivo. The note with it: Townes SCD mice; whole blood after 21 days of treatment; FIG. 8C. The text has this:
The Townes SCD mouse model was used to study the in vivo pharmacologic activity of Compound 1 in a model with the relevant human globin genes (HBG1 and HBBE6V) integrated into the mouse beta globin locus. Hydroxyurea was used as a benchmark for this 21-day study. […] People living with sickle cell present with impaired erythropoiesis leading to elevated reticulocytes, decreased red blood cell count, and total hemoglobin, and additionally display markers of inflammation such as elevated neutrophils and white blood cells. Similarly, the Townes mouse model recapitulates these hematological aspects of SCD.

The test system of experiment [2] is H3K27me3. Kind of experiment: Target engagement: H3K27me3 flow cytometry in Ter119+ bone marrow cells of Townes SCD mice. Type of experiment: in vivo, mouse. The conditions noted are these: after 28 days of treatment, FIG. 8A. The text has this: The Townes SCD mouse model was used to study the in vivo pharmacologic activity of Compound 1 in a model with the relevant human globin genes (HBG1 and HBBE6V) integrated into the mouse beta globin locus. […] […] People living with sickle cell present with impaired erythropoiesis leading to elevated reticulocytes, decreased red blood cell count, and total hemoglobin, and additionally display markers of inflammation such as elevated neutrophils and white blood cells. Similarly, the Townes mouse model recapitulates these hematological aspects of SCD.

Experiment [3] relates to HBG2. Kind of experiment: RNA-Seq of HBG2 expression in erythroid-differentiated primary CD34+ cells. The format is cell-based, human. As to the method: (§1) Changes in BCL11A expression and HBG1 and HBG2 expression in multiple healthy CD34+ donor cells were measured by RNA sequencing (RNA-Seq). Human Mobilized Peripheral Blood Primary CD34+ cells from 2 healthy donors and 1 sickle cell trait donor were expanded from thaw by seeding 100,000 viable cells/mL in a culture flask containing CD34+ Phase 1 Media comprised of IMDM, 100 ng/ml hSCF, 5 ng/ml IL-3, 3 IU/mL EPO, 250 μg/mL transferrin, 2.5% normal human serum, 1% pen/strep, 10 ng/ml heparin, 10 μg/mL insulin. The cells were supplemented by adding an additional 1X culture volume of CD34+ Phase 1 Media on Day 3 after thaw. At Day 7 post-thaw, cells were seeded at 0.111×10^6 cells/ml in 1.5 mLs of Phase 1 media in 12-well plates and compound was applied. On Day 10 post-thaw, cells were differentiated towards the erythroid lineage by complete medium exchange into CD34+ Phase 2 Media comprised of IMDM, 100 ng/ml hSCF, 3 IU/mL EPO, 250 μg/mL transferrin, 2.5% normal human serum, 1% pen/strep, 10 ng/ml heparin, 10 μg/mL insulin and compound treatment was reapplied. […]
(§2) RNA was extracted from Day 14 post-thaw primary CD34+ cells that were differentiated and treated for 7 days with DMSO, 100 nM of Compound 1, or 100 nM of Compound 2 using Ambion mirVana RNA extraction kits. […] Sequenced raw reads of fastq files from all samples were mapped to hg38 genome assemblies using ArrayStudio aligner. Raw read counts and FPKM were calculated for all genes and DESeq2 was applied to calculate differentially expressed genes using general linear model. […]
(§3) RNA was extracted from Day 14 post-thaw primary CD34+ cells that were differentiated and treated for 7 days with DMSO, 11 nM, 33 nM, 100 nM, or 300 nM of Compound 1 using Ambion mirVana RNA extraction kits. […] Sequenced raw reads of fastq files from all samples were mapped to hg38 genome assemblies using ArrayStudio aligner. Raw read counts and FPKM were calculated for all genes and DESeq2 was applied to calculate differentially expressed genes using general linear model. […]

For experiment [4], the system named is BCL11A. The experiment is described as follows: RNA-Seq of BCL11A mRNA expression in erythroid-differentiated primary CD34+ cells. Type of experiment: cell-based, human. How it is done: Human Mobilized Peripheral Blood Primary CD34+ cells from healthy donors were expanded from thaw by seeding 100,000 viable cells/mL in a culture flask containing CD34+ Phase 1 Media comprised of IMDM, 100 ng/ml hSCF, 5 ng/ml IL-3, 3 IU/mL EPO, 250 μg/mL transferrin, 2.5% normal human serum, 1% pen/strep, 10 ng/ml heparin, 10 μg/mL insulin. The cells were supplemented by adding an additional 1X culture volume of CD34+ Phase 1 Media on Day 3 after thaw. At Day 7 post-thaw, cells were seeded at 0.111×10^6 cells/ml in 1.5 mLs of Phase 1 media in 12-well plates and compound was applied. On Day 10 post-thaw, cells were differentiated towards the erythroid lineage by complete medium exchange into CD34+ Phase 2 Media comprised of IMDM, 100 ng/ml hSCF, 3 IU/mL EPO, 250 μg/mL transferrin, 2.5% normal human serum, 1% pen/strep, 10 ng/mL heparin, 10 μg/mL insulin and compound treatment was reapplied. On Day 12 post-thaw the plates were centrifuged, and 1 mL of Phase 2 media exchanged with fresh Phase 2 media and compound. The cells were harvested on Day 14 post-thaw for downstream analyses.
as §3
Changes in BCL11A expression and HBG1 and HBG2 expression in multiple healthy CD34+ donor cells were measured by RNA sequencing (RNA-Seq). […]
RNA was extracted from Day 14 post-thaw primary CD34+ cells that were differentiated and treated for 7 days with DMSO, 100 nM of Compound 1, or 100 nM of Compound 2 using Ambion mirVana RNA extraction kits. […] Sequenced raw reads of fastq files from all samples were mapped to hg38 genome assemblies using ArrayStudio aligner. […]

Experiment [5] concerns HBG1. The experiment is described as follows: RNA-Seq of HBG1 expression in erythroid-differentiated primary CD34+ cells. The format is cell-based, human. How it is done:
as §1, §2, §3

Experiment [6] relates to HbF. Kind of experiment: Percentage HbF by cation-exchange HPLC in erythroid-differentiated primary CD34+ cells. The format is cell-based, human. The note with it: Example 2; 100 nM, 7 days. How it is done:
as §1, with “applied.” for “applied. On Day 10 post-thaw, cells were differentiated towards the erythroid lineage by complete medium exchange into CD34+ Phase 2 Media comprised of IMDM, 100 ng/ml hSCF, 3 IU/mL EPO, 250 μg/mL transferrin, 2.5% normal human serum, 1% pen/strep, 10 ng/ml heparin, 10 μg/mL insulin and compound treatment was reapplied.”
Hemoglobin protein tetramers were analyzed using HPLC analysis following a protocol derived from Gravett et al. Science 2018. […] Hemolysates were cleared by centrifugation and analyzed for identity and levels of hemoglobin variants (HbF and HbA) by cation-exchange HPLC with a weak cation-exchange column (Poly CAT A: 35 mm×4.6 mm, Poly LC, Inc., Columbia, MD). […] Species were monitored with UV absorbance at 410 nm. […] The abundance of HbF, HbS, and HbA was quantified by calculating the area under the curve for each species in the samples. % HbF was calculated as HbF/(HbF+HbS+HbA)*100. […]

The subject of experiment [7] is TFRC. The experiment is described as follows: RNA-Seq of housekeeping gene TFRC expression in primary CD34+ cells. Type of experiment: cell-based, human. The note with it: Example 2; 100 nM, 7 days. As to the method: as §1, with “applied.” for “applied. On Day 10 post-thaw, cells were differentiated towards the erythroid lineage by complete medium exchange into CD34+ Phase 2 Media comprised of IMDM, 100 ng/ml hSCF, 3 IU/mL EPO, 250 μg/mL transferrin, 2.5% normal human serum, 1% pen/strep, 10 ng/ml heparin, 10 μg/mL insulin and compound treatment was reapplied.”
as §2

Setting [8] is: Example 5, 4-point concentration response curves, FIG. 5C.
Where [9] appears, read: Example 5, 4-point concentration response curves, FIG. 5A.
Setting [10] is: Example 5, 4-point concentration response curves, FIG. 5B.
[11] abbreviates: Example 2, 100 nM, 7 days, all donors studied (D069, D144, D326), FIG. 2.

On to `NC(=O)NO` [hydroxyurea], for which the “% HbF of total hemoglobin by HPLC” value in experiment [1] was “no change”. Further, the “levels of H3K27me3 in Ter119+ bone marrow cells” value in experiment [2] is recorded as “not”.
For the molecule `COc1cc(C)[nH]c(=O)c1CN1CCc2c(Cl)cc([C@@H](OC)C3COC3)c(Cl)c2C1=O` [Compound 3], the HBG2 expression result in experiment [3] (setting [8]) is given as “induction”. In addition, the BCL11A expression entry in experiment [4] (setting [9]) is recorded as “reduction”. Besides, the HBG1 expression result in experiment [5] (setting [10]) is “induction”.
For the molecule `Cn1nccc1-c1cc2c(n3cnnc13)NCc1c(F)ccc3c1[C@H](CO3)CO2` [Compound 2], the HBG2 expression result is given as “increase” in experiment [3] (setting [11]) and “induction” in experiment [3] (setting [8]). The BCL11A expression entry in experiment [4] (setting [11]) is listed as “decreased”; in experiment [4] (setting [9]) it was “reduction”. Further, the “increase in percentage HbF by HPLC” value in experiment [6] is listed as “approximately 2 fold”. The “expression of the housekeeping gene TFRC” value in experiment [7] is on record as “did not result in substantial changes in expression”. Besides, the HBG1 expression entry in experiment [5] (setting [11]) is reported as “increase”; in experiment [5] (setting [10]), “induction”.
